Series [1] concerns Caenorhabditis elegans. Description: Antiapoptotic activity against Caenorhabditis elegans ced-3(n2438) G474R mutant assessed as number of extra cells in anterior pharynx L3 and L4 larvae at 250 mM dissolved in soybean oil. It is filed as functional, organism-based.
For series [2], the system named is Caenorhabditis elegans. Put plainly: Antiapoptotic activity against Caenorhabditis elegans ced-3(n2447) S446L mutant assessed as number of extra cells in anterior pharynx L3 and L4 larvae at 250 mM dissolved in soybean oil. It counts as functional, organism-based.
Series [3] concerns Caenorhabditis elegans. Put plainly: Antiapoptotic activity against Caenorhabditis elegans ced-3(n2436) mutant assessed as number of extra cells in anterior pharynx L3 and L4 larvae at 250 mM dissolved in soybean oil. It is filed as functional, organism-based.
Series [4] concerns Caenorhabditis elegans. Description: Antiapoptotic activity against Caenorhabditis elegans ced-4(n2273) mutant assessed as number of extra cells in anterior pharynx L3 and L4 larvae at 250 mM dissolved in soybean oil. It counts as functional, organism-based.
The test system of series [5] is Caenorhabditis elegans. Description: Antiapoptotic activity against Caenorhabditis elegans ced-8(n1891) mutant assessed as number of extra cells in anterior pharynx L3 and L4 larvae at 250 mM dissolved in soybean oil. It counts as functional, organism-based.
In series [6] the test system is Caenorhabditis elegans. Description: Antiapoptotic activity against Caenorhabditis elegans ced-9(n1950) mutant assessed as number of extra cells in anterior pharynx L3 and L4 larvae at 250 mM dissolved in soybean oil. It is filed as functional, organism-based.
Series [7] concerns Caenorhabditis elegans. Description: Antiapoptotic activity against Caenorhabditis elegans ced-3(n2433) mutant assessed as number of extra cells in anterior pharynx L3 and L4 larvae at 250 mM dissolved in soybean oil. It counts as functional, organism-based.
Series [8] is described as follows: Octanol-water partition coefficient, log P of the compound. It counts as physicochemical.
Series [9] has as its system Caenorhabditis elegans. Put plainly: Antiapoptotic activity against Caenorhabditis elegans ced-3(n2438) mutant assessed as number of extra cells in anterior pharynx at 50 to 250 mM dissolved in soybean oil. It is filed as functional, organism-based.

Calls of active or inactive are those of the source. No cut-off for these calls is given here.

As usually defined, the logP is a log measure of how a compound divides between an organic and an aqueous phase. Take `Clc1ccc(Cl)cc1` [1,4-DICHLOROBENZENE]: the result with Caenorhabditis elegans [1], in the series on Caenorhabditis elegans [2], in the series on Caenorhabditis elegans [3], in the series with Caenorhabditis elegans [4], with Caenorhabditis elegans [5] and in the series on Caenorhabditis elegans [6] was Active. In the series with Caenorhabditis elegans [7], the outcome was Active. In series [8], this molecule yielded a lipophilicity (logP) of 3.5.

On to `CCCCC(CC)COC(=O)c1ccccc1C(=O)OCC(CC)CCCC` (centres undefined), for which the outcome in the series with Caenorhabditis elegans [9] was inactive.

(Values after ChEMBL document CHEMBL1240309 (Nat Chem Biol, 2006).)
